Assay results as given in patent US6706663B2, “Herbicidal 3-heterocyclic substituted benzisothiazole and benzisoxazole compounds” (Wyeth, priority 2000, dated 2004).

Experiments:
[1] = system: ABUTH (Abutilon theophrasti); assay: Postemergence herbicidal evaluation; type: in vivo, Medic.; details: postemergence
In short: (§1)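 Visual 0–9 injury scores versus control plants, covering stand, vigour, malformation, size, chlorosis and general appearance, taken four to five weeks post-spray and averaged over replicate tests. Plants were sprayed at roughly two weeks old and held on greenhouse benches.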

[2] = system: AMBEL (Ambrosia artemisifolia); assay: Postemergence herbicidal evaluation; type: in vivo, L.; details: postemergence
In short: as §1

[3] = system: CASOB (Cassia obtusifolia); assay: Postemergence herbicidal evaluation; type: in vivo, L.; details: postemergence
In short: as §1

[4] = system: CHEAL (Chenopodium album); assay: Postemergence herbicidal evaluation; type: in vivo, L.; details: postemergence
In short: as §1

[5] = system: IPOHE (Ipomoea hederacea); assay: Postemergence herbicidal evaluation; type: in vivo, (L.) Jacq.; details: postemergence
In short: as §1

[6] = system: ECHCG (Echinochloa crus-galli); assay: Postemergence herbicidal evaluation; type: in vivo, (L.) Beau; details: postemergence
In short: as §1

[7] = system: ORYSAT (Rice, Tebonnet); assay: Postemergence herbicidal evaluation; type: in vivo, Oryza sativa, (L.) Tebonnet; details: postemergence
In short: as §1

[8] = system: TRZAWR (Wheat, Winter, cv Riband); assay: Postemergence herbicidal evaluation; type: in vivo, Triticum aestivum; details: postemergence
In short: as §1

[9] = system: ZEAMX (Corn, Field); assay: Postemergence herbicidal evaluation; type: in vivo, Zea mays, L.; details: postemergence
In short: as §1

[10] = system: ABUTH (Abutilon theophrasti); assay: Preemergence herbicidal evaluation; type: in vivo, Medic.; details: rated 4-5 weeks after treatment
[11] = system: AMBEL (Ambrosia artemisifolia); assay: Preemergence herbicidal evaluation; type: in vivo, L.; details: rated 4-5 weeks after treatment
In short: (§2)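 Preemergence soil spray, aq. acetone; greenhouse; visual 0–9 score vs control at 4–5 wk.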

[12] = system: CASOB (Cassia obtusifolia); assay: Preemergence herbicidal evaluation; type: in vivo, L.; details: rated 4-5 weeks after treatment
In short: as §2

[13] = system: CHEAL (Chenopodium album); assay: Preemergence herbicidal evaluation; type: in vivo, L.; details: rated 4-5 weeks after treatment
In short: as §2

[14] = system: ORYSAT (Rice, Tebonnet); assay: Preemergence herbicidal evaluation; type: in vivo, Oryza sativa, (L.) Tebonnet; details: rated 4-5 weeks after treatment
[15] = system: TRZAWR (Wheat, Winter, cv Riband); assay: Preemergence herbicidal evaluation; type: in vivo, Triticum aestivum; details: rated 4-5 weeks after treatment
In short: as §2

[16] = system: ECHORC (Echinochloa oryzoides); assay: Flooded paddy, preemergence weed control; type: in vivo, Echinochloa oryzoides (Ard.) Fritsch.; details: rated 3-4 weeks after treatment, 0-9 rating scale
In short: (§3)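 Visual 0–9 ratings versus controls scored stand, vigor, malformation, size, chlorosis and overall appearance. Plants grew from seeds or propagating organs sown 0.5 cm deep in silt loam, with water held 1.5–3 cm above the soil for the whole test under greenhouse care.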

[17] = system: CYPSE (Cyperus serotinus); assay: Flooded paddy, preemergence weed control; type: in vivo, Rottb.; details: rated 3-4 weeks after treatment, 0-9 rating scale
In short: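 Seeds or propagules were planted 0.5 cm deep in silt loam and flooded to 1.5–3 cm. Compounds in 50/50 v/v aqueous/acetone were pipetted into the flood water at about 0.0080 to 0.1250 kg/ha. After 3–4 weeks in the greenhouse, effect was rated visually on a 0–9 scale versus untreated control.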

[18] = system: SAGPY (Sagittaria pygmaea); assay: Flooded paddy, preemergence weed control; type: in vivo, L.; details: rated 3-4 weeks after treatment, 0-9 rating scale
In short: as §3

[19] = system: ORYSAT (Rice, Tebonnet); assay: Flooded paddy, post-transplant rice tolerance; type: in vivo, Oryza sativa, (L.) Tebonnet; details: flooded paddy, post-transplant rice, rated 3-4 weeks after treatment, 0-9 rating scale
In short: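 Ten-day-old seedlings, 2/pot, silt loam; flood kept 1.5–3 cm over soil; herbicide applied post-transplant; greenhouse; score 0–9 visual vs control.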

Structure (SMILES): Cn1c(C(F)(F)F)cc(=O)n(-c2ccc3snc(-c4sccc4Cl)c3c2)c1=O [Compound 52, 3-[3-(3-chloro-2-thienyl)-1,2-benzisothiazol-5-yl]-1-methyl-6-(trifluoromethyl)uracil]
- ABUTH herbicidal rating ([1]; rate 0.0320 kg/ha): 9.0
- ABUTH herbicidal rating ([1]; rate 0.0620 kg/ha): 9.0
- ABUTH herbicidal rating ([1]; rate 0.1250 kg/ha): 9.0
- AMBEL herbicidal rating ([2]; rate 0.0320 kg/ha): 9.0
- AMBEL herbicidal rating ([2]; rate 0.0620 kg/ha): 9.0
- AMBEL herbicidal rating ([2]; rate 0.1250 kg/ha): 9.0
- CASOB herbicidal rating ([3]; rate 0.0320 kg/ha): 1.0
- CASOB herbicidal rating ([3]; rate 0.0620 kg/ha): 7.0
- CASOB herbicidal rating ([3]; rate 0.1250 kg/ha): 8.0
- CHEAL herbicidal rating ([4]; rate 0.0320 kg/ha): 5.0
- CHEAL herbicidal rating ([4]; rate 0.0620 kg/ha): 5.0
- CHEAL herbicidal rating ([4]; rate 0.1250 kg/ha): 9.0
- IPOHE herbicidal rating ([5]; rate 0.0320 kg/ha): 9.0
- IPOHE herbicidal rating ([5]; rate 0.0620 kg/ha): 9.0
- IPOHE herbicidal rating ([5]; rate 0.1250 kg/ha): 9.0
- ECHCG herbicidal rating ([6]; rate 0.0320 kg/ha): 0.0
- ECHCG herbicidal rating ([6]; rate 0.0620 kg/ha): 1.0
- ECHCG herbicidal rating ([6]; rate 0.1250 kg/ha): 5.0
- ORYSAT herbicidal rating ([7]; rate 0.0320 kg/ha): 3.0
- ORYSAT herbicidal rating ([7]; rate 0.0620 kg/ha): 3.0
- ORYSAT herbicidal rating ([7]; rate 0.1250 kg/ha): 4.0
- TRZAWR herbicidal rating ([8]; rate 0.0320 kg/ha): 4.0
- TRZAWR herbicidal rating ([8]; rate 0.0620 kg/ha): 4.0
- TRZAWR herbicidal rating ([8]; rate 0.1250 kg/ha): 5.0
- ZEAMX herbicidal rating ([9]; rate 0.0320 kg/ha): 3.5
- ZEAMX herbicidal rating ([9]; rate 0.0620 kg/ha): 3.5
- ZEAMX herbicidal rating ([9]; rate 0.1250 kg/ha): 5.0
- Preemergence herbicidal rating ABUTH ([10]; Rate 0.0620 kg/ha): 9.0
- Preemergence herbicidal rating ABUTH ([10]; Rate 0.1250 kg/ha): 8.5
- Preemergence herbicidal rating ABUTH ([10]; Rate 0.2500 kg/ha): 9.0
- Preemergence herbicidal rating AMBEL ([11]; Rate 0.0620 kg/ha): 3.5
- Preemergence herbicidal rating AMBEL ([11]; Rate 0.1250 kg/ha): 8.5
- Preemergence herbicidal rating AMBEL ([11]; Rate 0.2500 kg/ha): 9.0
- Preemergence herbicidal rating CASOB ([12]; Rate 0.0620 kg/ha): 1.0
- Preemergence herbicidal rating CASOB ([12]; Rate 0.1250 kg/ha): 1.0
- Preemergence herbicidal rating CASOB ([12]; Rate 0.2500 kg/ha): 4.0
- Preemergence herbicidal rating CHEAL ([13]; Rate 0.0620 kg/ha): 9.0
- Preemergence herbicidal rating CHEAL ([13]; Rate 0.1250 kg/ha): 9.0
- Preemergence herbicidal rating CHEAL ([13]; Rate 0.2500 kg/ha): 9.0
- Preemergence herbicidal rating ORYSAT ([14]; Rate 0.0620 kg/ha): 1.0
- Preemergence herbicidal rating ORYSAT ([14]; Rate 0.1250 kg/ha): 1.5
- Preemergence herbicidal rating ORYSAT ([14]; Rate 0.2500 kg/ha): 3.5
- Preemergence herbicidal rating TRZAWR ([15]; Rate 0.0620 kg/ha): 1.0
- Preemergence herbicidal rating TRZAWR ([15]; Rate 0.1250 kg/ha): 1.0
- Preemergence herbicidal rating TRZAWR ([15]; Rate 0.2500 kg/ha): 3.0
- herbicidal rating, ECHORC ([16]; rate 0.0080 kg/ha): 8.5
- herbicidal rating, ECHORC ([16]; rate 0.0320 kg/ha): 9.0
- herbicidal rating, ECHORC ([16]; rate 0.1250 kg/ha): 9.0
- herbicidal rating, CYPSE ([17]; rate 0.0320 kg/ha): 9.0
- herbicidal rating, CYPSE ([17]; rate 0.1250 kg/ha): 9.0
- herbicidal rating, SAGPY ([18]; rate 0.0080 kg/ha): 0.0
- herbicidal rating, SAGPY ([18]; rate 0.0320 kg/ha): 3.7
- herbicidal rating, SAGPY ([18]; rate 0.1250 kg/ha): 7.7
- herbicidal rating, ORYSAT (rice tolerance) ([19]; rate 0.0080 kg/ha): 1.0
- herbicidal rating, ORYSAT (rice tolerance) ([19]; rate 0.0320 kg/ha): 3.7
- herbicidal rating, ORYSAT (rice tolerance) ([19]; rate 0.1250 kg/ha): 5.7

Structure (SMILES): Cn1c(C(F)(F)F)cc(=O)n(-c2ccc3snc(-c4nccs4)c3c2)c1=O [Compound 53, 1-methyl-3-[3-(2-thiazolyl)-1,2-benzisothiazol-5-yl]-6-(trifluoromethyl)uracil]
- ABUTH herbicidal rating ([1]; rate 0.0320 kg/ha): 9.0
- ABUTH herbicidal rating ([1]; rate 0.0620 kg/ha): 9.0
- ABUTH herbicidal rating ([1]; rate 0.1250 kg/ha): 9.0
- AMBEL herbicidal rating ([2]; rate 0.0320 kg/ha): 6.5
- AMBEL herbicidal rating ([2]; rate 0.0620 kg/ha): 9.0
- AMBEL herbicidal rating ([2]; rate 0.1250 kg/ha): 9.0
- CASOB herbicidal rating ([3]; rate 0.0320 kg/ha): 2.0
- CASOB herbicidal rating ([3]; rate 0.0620 kg/ha): 4.0
- CASOB herbicidal rating ([3]; rate 0.1250 kg/ha): 3.0
- CHEAL herbicidal rating ([4]; rate 0.0320 kg/ha): 4.5
- CHEAL herbicidal rating ([4]; rate 0.0620 kg/ha): 7.0
- CHEAL herbicidal rating ([4]; rate 0.1250 kg/ha): 9.0
- IPOHE herbicidal rating ([5]; rate 0.0320 kg/ha): 8.0
- IPOHE herbicidal rating ([5]; rate 0.0620 kg/ha): 9.0
- IPOHE herbicidal rating ([5]; rate 0.1250 kg/ha): 9.0
- ECHCG herbicidal rating ([6]; rate 0.0320 kg/ha): 1.0
- ECHCG herbicidal rating ([6]; rate 0.0620 kg/ha): 2.0
- ECHCG herbicidal rating ([6]; rate 0.1250 kg/ha): 1.0
- ORYSAT herbicidal rating ([7]; rate 0.0320 kg/ha): 3.0
- ORYSAT herbicidal rating ([7]; rate 0.0620 kg/ha): 3.5
- ORYSAT herbicidal rating ([7]; rate 0.1250 kg/ha): 3.0
- TRZAWR herbicidal rating ([8]; rate 0.0320 kg/ha): 3.3
- TRZAWR herbicidal rating ([8]; rate 0.0620 kg/ha): 4.0
- TRZAWR herbicidal rating ([8]; rate 0.1250 kg/ha): 4.0
- ZEAMX herbicidal rating ([9]; rate 0.0320 kg/ha): 4.5
- ZEAMX herbicidal rating ([9]; rate 0.0620 kg/ha): 5.0
- ZEAMX herbicidal rating ([9]; rate 0.1250 kg/ha): 5.5
- Preemergence herbicidal rating ABUTH ([10]; Rate 0.0620 kg/ha): 5.0
- Preemergence herbicidal rating ABUTH ([10]; Rate 0.1250 kg/ha): 7.5
- Preemergence herbicidal rating ABUTH ([10]; Rate 0.2500 kg/ha): 9.0
- Preemergence herbicidal rating AMBEL ([11]; Rate 0.0620 kg/ha): 4.0
- Preemergence herbicidal rating AMBEL ([11]; Rate 0.1250 kg/ha): 8.0
- Preemergence herbicidal rating AMBEL ([11]; Rate 0.2500 kg/ha): 8.5
- Preemergence herbicidal rating CASOB ([12]; Rate 0.0620 kg/ha): 0.0
- Preemergence herbicidal rating CASOB ([12]; Rate 0.1250 kg/ha): 1.0
- Preemergence herbicidal rating CASOB ([12]; Rate 0.2500 kg/ha): 3.0
- Preemergence herbicidal rating CHEAL ([13]; Rate 0.0620 kg/ha): 9.0
- Preemergence herbicidal rating CHEAL ([13]; Rate 0.1250 kg/ha): 9.0
- Preemergence herbicidal rating CHEAL ([13]; Rate 0.2500 kg/ha): 9.0
- Preemergence herbicidal rating ORYSAT ([14]; Rate 0.0620 kg/ha): 1.0
- Preemergence herbicidal rating ORYSAT ([14]; Rate 0.1250 kg/ha): 3.0
- Preemergence herbicidal rating ORYSAT ([14]; Rate 0.2500 kg/ha): 5.0
- Preemergence herbicidal rating TRZAWR ([15]; Rate 0.0620 kg/ha): 1.0
- Preemergence herbicidal rating TRZAWR ([15]; Rate 0.1250 kg/ha): 3.5
- Preemergence herbicidal rating TRZAWR ([15]; Rate 0.2500 kg/ha): 5.0
- herbicidal rating, ECHORC ([16]; rate 0.0080 kg/ha): 3.0
- herbicidal rating, ECHORC ([16]; rate 0.0320 kg/ha): 9.0
- herbicidal rating, ECHORC ([16]; rate 0.1250 kg/ha): 9.0
- herbicidal rating, CYPSE ([17]; rate 0.0320 kg/ha): 3.0
- herbicidal rating, CYPSE ([17]; rate 0.1250 kg/ha): 9.0
- herbicidal rating, SAGPY ([18]; rate 0.0080 kg/ha): 0.0
- herbicidal rating, SAGPY ([18]; rate 0.0320 kg/ha): 4.3
- herbicidal rating, SAGPY ([18]; rate 0.1250 kg/ha): 9.0
- herbicidal rating, ORYSAT (rice tolerance) ([19]; rate 0.0080 kg/ha): 0.5
- herbicidal rating, ORYSAT (rice tolerance) ([19]; rate 0.0320 kg/ha): 2.7
- herbicidal rating, ORYSAT (rice tolerance) ([19]; rate 0.1250 kg/ha): 5.0
